Our source for the IC50 values is patent US9834565B2, “Tricyclic heterocycles as bet protein inhibitors” (Incyte Corporation, priority 2014, dated 2017).

Each structure is given as a SMILES string.

The target in assay [1] is BRD4-BD1 (Homo sapiens (Human), UniProt O60885). Description: BRD4-BD1 AlphaScreen assay. It is filed as binding. Particulars: H4Ac4 peptide, read-out: BRD4 BD-1 enzyme IC50. The method, then: (§1) BRD4-BD1 and BRD4-BD2 assays were conducted in white 384-well polystyrene plate in a final volume of 20 μL for BD1 and 40 μL for BD2. Inhibitors were first serially diluted in DMSO and added to the plate wells before the addition of other reaction components. […] After plate sealing, the plate was incubated in the dark at room temperature for 75 min. before reading on a PHERAstar FS plate reader (BMG Labtech). IC50 determination was performed by fitting the curve of percent control activity versus the log of the inhibitor concentration using the GraphPad Prism 5.0 software.
In general terms: Bead proximity is the source of the signal in Alpha formats.

In assay [2] the target is BRD4-BD2 (Homo sapiens (Human), UniProt O60885). Description: BRD4-BD2 AlphaScreen assay. The assay is classed as binding. As to conditions: H4Ac4 peptide, read-out: BRD4 BD-2 enzyme IC50. The method, then: as §1

For orientation: IC50 means the midpoint of a concentration-inhibition curve. Regarding `CC(=O)N1C[C@@H](C)N(c2nc3ccc(-c4c(C)noc4C)c4c3n2[C@@H](c2ccccn2)CO4)[C@@H](C)C1` (atropisomer, axis not shown) [Example 2, (4S)-2-[(2R,6S)-4-Acetyl-2,6-dimethylpiperazin-1-yl]-7-(3,5-dimethylisoxazol-4-yl)-4-pyridin-2-yl-4,5-dihydroimidazo[1,5,4-de][1,4]benzoxazine], the 50% inhibitory concentration (IC50) in assay [1] and in assay [2] was under 25 nM throughout.
For `Cc1noc(C)c1-c1ccc2nc(N3CCN(C(=O)C(C)C)CC3)n3c2c1OC[C@@H]3c1ccccn1` [Example 1, (4S)-7-(3,5-Dimethylisoxazol-4-yl)-2-(4-isobutyrylpiperazin-1-yl)-4-pyridin-2-yl-4,5-dihydroimidazo[1,5,4-de][1,4]benzoxazine], the half-inhibitory concentration (IC50) in assay [1] and in assay [2] was under 25 nM in each case.
As to `CC(=O)N1CCN(c2nc3ccc(-c4c(C)noc4C)c4c3n2[C@@H](c2ccccn2)CO4)[C@@H](C)C1` [Example 3, (4S)-2-[(2S)-4-acetyl-2-methylpiperazin-1-yl]-7-(3,5-dimethylisoxazol-4-yl)-4-pyridin-2-yl-4,5-dihydroimidazo[1,5,4-de][1,4] benzoxazine], the IC50 in assay [1] was 25 to 100 nM; in assay [2] it was under 25 nM.
For `CC(=O)N1CC2CC1CN2c1nc2ccc(-c3c(C)noc3C)c3c2n1[C@@H](c1ccccn1)CO3` (stereo partly drawn) [Example 4, (4S)-2-(5-acetyl-2,5-diazabicyclo[2.2.1]hept-2-yl)-7-(3,5-dimethylisoxazol-4-yl)-4-pyridin-2-yl-4,5-dihydroimidazo[1,5,4-de][1,4]benzoxazine], the IC50 in assay [1] and in assay [2] was under 25 nM throughout.
Take `CC(=O)NC1(C)CCN(c2nc3ccc(-c4c(C)noc4C)c4c3n2[C@@H](c2ccccn2)CO4)CC1` [Example 5, N-{1-[(4S)-7-(3,5-dimethylisoxazol-4-yl)-4-pyridin-2-yl-4,5-dihydroimidazo[1,5,4-de][1,4]benzoxazin-2-yl]-4-methylpiperidin-4-yl}acetamide]: the concentration for half-maximal inhibition (IC50) in assay [1] is 25 to 100 nM; in assay [2] it was under 25 nM.
Take `CCC(=O)N1CCN(c2nc3ccc(-c4c(C)noc4C)c4c3n2[C@@H](c2ccccn2)CO4)C[C@@H]1C` [Example 8, (4S)-7-(3,5-dimethylisoxazol-4-yl)-2-[(3S)-3-methyl-4-propionylpiperazin-1-yl]-4-pyridin-2-yl-4,5-dihydroimidazo[1,5,4-de][1,4]benzoxazine]: the IC50 in assay [1] and in assay [2] was under 25 nM in each case.
In the case of `Cc1noc(C)c1-c1ccc2nc(N3CCN(C(=O)C(C)C)[C@@H](C)C3)n3c2c1OC[C@@H]3c1ccccn1` [Example 9, (4S)-7-(3,5-dimethylisoxazol-4-yl)-2-[(3S)-4-isobutyryl-3-methylpiperazin-1-yl]-4-pyridin-2-yl-4,5-dihydroimidazo[1,5,4-de][1,4]benzoxazine], the IC50 in assay [1] and in assay [2] was under 25 nM throughout.
Take `CCCC(=O)NC1CCN(c2nc3ccc(-c4c(C)noc4C)c4c3n2[C@@H](c2ccccn2)CO4)CC1` [Example 10, N-{1-[(4S)-7-(3,5-dimethylisoxazol-4-yl)-4-pyridin-2-yl-4,5-dihydroimidazo[1,5,4-de][1,4]benzoxazin-2-yl]piperidin-4-yl}butanamide]: the 50% inhibitory concentration (IC50) in assay [1] and in assay [2] was under 25 nM each time.
As to `Cc1noc(C)c1-c1ccc2nc(N3CCC(NC(=O)C(C)(C)C)CC3)n3c2c1OC[C@@H]3c1ccccn1` [Example 11, N-{1-[(4S)-7-(3,5-dimethylisoxazol-4-yl)-4-pyridin-2-yl-4,5-dihydroimidazo[1,5,4-de][1,4]benzoxazin-2-yl]piperidin-4-yl}-2,2-dimethylpropanamide], the concentration for half-maximal inhibition (IC50) in assay [1] and in assay [2] was under 25 nM throughout.
For `Cc1noc(C)c1-c1ccc2nc(N3CCC(NC(=O)C4CCC4)CC3)n3c2c1OC[C@@H]3c1ccccn1` [Example 13, N-{1-[(4S)-7-(3,5-dimethylisoxazol-4-yl)-4-pyridin-2-yl-4,5-dihydroimidazo[1,5,4-de][1,4]benzoxazin-2-yl]piperidin-4-yl}cyclobutanecarboxamide], the IC50 in assay [1] and in assay [2] was under 25 nM each time.
As for `CCC(=O)N(C)C1CCN(c2nc3ccc(-c4c(C)noc4C)c4c3n2[C@@H](c2ccccn2)CO4)CC1` [Example 15, N-{1-[(4S)-7-(3,5-dimethylisoxazol-4-yl)-4-pyridin-2-yl-4,5-dihydroimidazo[1,5,4-de][1,4]benzoxazin-2-yl]piperidin-4-yl}-N-methylpropanamide], the half-maximal inhibitory concentration (IC50) in assay [1] and in assay [2] was under 25 nM each time.
Turning to `CCCC(=O)N(C)C1CCN(c2nc3ccc(-c4c(C)noc4C)c4c3n2[C@@H](c2ccccn2)CO4)CC1` [Example 16, N-{1-[(4S)-7-(3,5-dimethylisoxazol-4-yl)-4-pyridin-2-yl-4,5-dihydroimidazo[1,5,4-de][1,4]benzoxazin-2-yl]piperidin-4-yl}-N-methylbutanamide], the half-inhibitory concentration (IC50) in assay [1] and in assay [2] was under 25 nM throughout.
For the compound `Cc1noc(C)c1-c1ccc2nc(N3CCC(N(C)C(=O)C(C)C)CC3)n3c2c1OC[C@@H]3c1ccccn1` [Example 17, N-{1-[(4S)-7-(3,5-dimethylisoxazol-4-yl)-4-pyridin-2-yl-4,5-dihydroimidazo[1,5,4-de][1,4]benzoxazin-2-yl]piperidin-4-yl}-N,2-dimethylpropanamide], the half-inhibitory concentration (IC50) in assay [1] and in assay [2] was under 25 nM in each case.
As to `Cc1noc(C)c1-c1ccc2nc(N3CCC(N(C)C(=O)C(C)(C)C)CC3)n3c2c1OC[C@@H]3c1ccccn1` [Example 18, N-{1-[(4S)-7-(3,5-dimethylisoxazol-4-yl)-4-pyridin-2-yl-4,5-dihydroimidazo[1,5,4-de][1,4]benzoxazin-2-yl]piperidin-4-yl}-N,2,2-trimethylpropanamide], the IC50 in assay [1] and in assay [2] was under 25 nM in each case.
Regarding `Cc1noc(C)c1-c1ccc2nc(N3CCC(N(C)C(=O)C4CC4)CC3)n3c2c1OC[C@@H]3c1ccccn1` [Example 19, N-{1-[(4S)-7-(3,5-dimethylisoxazol-4-yl)-4-pyridin-2-yl-4,5-dihydroimidazo[1,5,4-de][1,4]benzoxazin-2-yl]piperidin-4-yl}-N-methylcyclopropanecarboxamide], the 50% inhibitory concentration (IC50) in assay [1] and in assay [2] was under 25 nM in each case.
Turning to `Cc1noc(C)c1-c1ccc2nc(N3CCC(N(C)C(=O)C4CCC4)CC3)n3c2c1OC[C@@H]3c1ccccn1` [Example 20, N-{1-[(4S)-7-(3,5-dimethylisoxazol-4-yl)-4-pyridin-2-yl-4,5-dihydroimidazo[1,5,4-de][1,4]benzoxazin-2-yl]piperidin-4-yl}-N-methylcyclobutanecarboxamide], the IC50 in assay [1] and in assay [2] was under 25 nM in each case.
In the case of `CCS(=O)(=O)N(C)C1CCN(c2nc3ccc(-c4c(C)noc4C)c4c3n2[C@@H](c2ccccn2)CO4)CC1` [Example 23, N-{1-[(4S)-7-(3,5-dimethylisoxazol-4-yl)-4-pyridin-2-yl-4,5-dihydroimidazo[1,5,4-de][1,4]benzoxazin-2-yl]piperidin-4-yl}-N-methylethanesulfonamide], the IC50 in assay [1] and in assay [2] was under 25 nM each time.
On to `Cc1noc(C)c1-c1ccc2nc(N3CCC(N(C)S(=O)(=O)C4CC4)CC3)n3c2c1OC[C@@H]3c1ccccn1` [Example 24, N-{1-[(4S)-7-(3,5-dimethylisoxazol-4-yl)-4-pyridin-2-yl-4,5-dihydroimidazo[1,5,4-de][1,4]benzoxazin-2-yl]piperidin-4-yl}-N-methylcyclopropanesulfonamide], for which the half-maximal inhibitory concentration (IC50) in assay [1] and in assay [2] was under 25 nM each time.
On to `CCCC(=O)N1CCN(c2nc3ccc(-c4c(C)noc4C)c4c3n2[C@@H](c2ccccn2)CO4)CC1` [Example 25, (4S)-2-(4-butyrylpiperazin-1-yl)-7-(3,5-dimethylisoxazol-4-yl)-4-pyridin-2-yl-4,5-dihydroimidazo[1,5,4-de][1,4]benzoxazine], for which the IC50 in assay [1] and in assay [2] was under 25 nM each time.
In the case of `Cc1noc(C)c1-c1ccc2nc(N3CCN(C(=O)C(C)(C)C)CC3)n3c2c1OC[C@@H]3c1ccccn1` [Example 26, (4S)-7-(3,5-dimethylisoxazol-4-yl)-2-[4-(2,2-dimethylpropanoyl)piperazin-1-yl]-4-pyridin-2-yl-4,5-dihydroimidazo[1,5,4-de][1,4]benzoxazine], the half-maximal inhibitory concentration (IC50) in assay [1] and in assay [2] was under 25 nM each time.
As for `Cc1noc(C)c1-c1ccc2nc(N3CCN(C(=O)C4CCC4)CC3)n3c2c1OC[C@@H]3c1ccccn1` [Example 28, (4S)-2-[4-(cyclobutylcarbonyl)piperazin-1-yl]-7-(3,5-dimethylisoxazol-4-yl)-4-pyridin-2-yl-4,5-dihydroimidazo[1,5,4-de][1,4]benzoxazine], the IC50 in assay [1] and in assay [2] was under 25 nM in each case.
For `COCC(=O)N1CCN(c2nc3ccc(-c4c(C)noc4C)c4c3n2[C@@H](c2ccccn2)CO4)CC1` [Example 29, (4S)-7-(3,5-dimethylisoxazol-4-yl)-2-[4-(methoxyacetyl)piperazin-1-yl]-4-pyridin-2-yl-4,5-dihydroimidazo[1,5,4-de][1,4]benzoxazine], the IC50 in assay [1] and in assay [2] was under 25 nM throughout.
